Four compounds from US3965260A, “Anti-inflammatory dipeptide” (McArthur; John N., priority 1975, dated 1976) can be followed below.

The subject of data set [1] is mammalian plasma and tissue peptidases.
For data set [2] the following is noted: in vivo.

Peptide text beside a SMILES is read from it. Bounds are passed on as bounds.

Take `N[C@H](Cc1c[nH]c2ccccc12)C(=O)N[C@H](Cc1ccccc1)C(=O)O` [D-tryptophanyl-D-phenylalanine] (HELM PEPTIDE1{[dW].[dF]}$$$$V2.0): the “hydrolysis by mammalian plasma and tissue peptidases” value (shortened to “hydrolysis”) in data set [1] is recorded as “resist rapid hydrolysis”. The same compound registered a half life in data set [2] of at least 6 h.
`N[C@H](Cc1ccccc1)C(=O)N[C@H](Cc1c[nH]c2ccccc12)C(=O)O` [D-phenylalanyl-D-tryptophan] (HELM PEPTIDE1{[dF].[dW]}$$$$V2.0): the “hydrolysis” value in data set [1] is recorded as “resist rapid hydrolysis”. In addition, the half life in data set [2] is at least 6 h.
For the compound `N[C@H](Cc1ccccc1)C(=O)N[C@H](Cc1ccccc1)C(=O)O` [D-phenylalanyl-D-phenylalanine] (HELM PEPTIDE1{[dF].[dF]}$$$$V2.0), the “hydrolysis” value in data set [1] was “resist rapid hydrolysis”. Moreover, the half life in data set [2] is at least 6 h.
As for `N[C@H](Cc1c[nH]c2ccccc12)C(=O)N[C@H](Cc1c[nH]c2ccccc12)C(=O)O` [D-tryptophanyl-D-tryptophan] (HELM PEPTIDE1{[dW].[dW]}$$$$V2.0), the “hydrolysis” value in data set [1] is “resist rapid hydrolysis”. Besides, in data set [2], the half life was at least 6 h.
